The NIST ThermoML archive (doi:10.1021/je050223a)

Experiments:
[1] = xn = mol fraction of the nth substance listed; details: 101.33 kPa, Liquid
[2] = 101.33 kPa, Liquid

CCOCCC(=O)OCC [ethyl β-ethoxypropionate] + C=C(C)C(=O)OCc1ccccc1
[1]
Details	mass density, 298.15 K [kg/m3]	mass density, 308.15 K [kg/m3]	mass density, 318.15 K [kg/m3]	viscosity, 298.15 K [mPa·s]	viscosity, 308.15 K [mPa·s]	viscosity, 318.15 K [mPa·s]
x1 = 0.1	1027	1017.9	1008.9	2.16	1.767	1.479
x1 = 0.2	1019.1	1009.9	1000.7	2.027	1.664	1.398
x1 = 0.3	1010.9	1001.5	992.1	1.91	1.571	1.323
x1 = 0.4	1002.3	992.7	983.2	1.795	1.48	1.247
x1 = 0.4999	993.4	983.7	974	1.681	1.391	1.173
x1 = 0.6	984.2	974.4	964.5	1.569	1.303	1.101
x1 = 0.7	974.7	964.8	954.7	1.457	1.215	1.029
x1 = 0.8	964.9	954.9	944.6	1.347	1.129	0.961
x1 = 0.9	954.3	944.3	934.1	1.242	1.047	0.899
x1 = 1	943.2	933.4	923.3	1.176	0.996	0.859

C=C(C)C(=O)O [2-methyl-2-propenoic acid]
[2]
Details	mass density [kg/m3]	viscosity [mPa·s]
298.15 K	1009.5	1.267
308.15 K	999.4	1.078
318.15 K	989.2	0.945

CCOCCC(=O)OCC [ethyl β-ethoxypropionate] + C=C(C)C(=O)OCCO
[1]
Details	mass density, 298.15 K [kg/m3]	mass density, 308.15 K [kg/m3]	mass density, 318.15 K [kg/m3]	viscosity, 298.15 K [mPa·s]	viscosity, 308.15 K [mPa·s]	viscosity, 318.15 K [mPa·s]
x1 = 0.1	1053	1043.6	1034.4	4.507	3.352	2.598
x1 = 0.2	1039.1	1029.6	1020.3	3.696	2.821	2.239
x1 = 0.3	1025.6	1016.1	1006.6	3.072	2.379	1.918
x1 = 0.4	1012.7	1003.1	993.5	2.503	1.98	1.611
x1 = 0.5	1000.2	990.5	980.8	2.156	1.731	1.425
x1 = 0.6	988.1	978.4	968.6	1.833	1.495	1.243
x1 = 0.6999	976.5	966.8	956.9	1.627	1.34	1.127
x1 = 0.8	965.2	955.5	945.6	1.417	1.181	1.007
x1 = 0.9	954.3	944.6	934.6	1.269	1.065	0.911
x1 = 1	943.2	933.4	923.3	1.176	0.996	0.859

CCOCCC(=O)OCC [ethyl β-ethoxypropionate] + C=C(C)C(=O)O
[1]
Details	mass density, 298.15 K [kg/m3]	mass density, 308.15 K [kg/m3]	mass density, 318.15 K [kg/m3]	viscosity, 298.15 K [mPa·s]	viscosity, 308.15 K [mPa·s]	viscosity, 318.15 K [mPa·s]
x1 = 0.1	1000.5	990.7	980.6	1.349	1.139	0.986
x1 = 0.1999	992.4	982.7	972.8	1.425	1.198	1.028
x1 = 0.3	984.9	975.1	965.2	1.504	1.257	1.075
x1 = 0.4	978.1	968.3	958.4	1.551	1.293	1.103
x1 = 0.5	971.5	961.7	951.9	1.516	1.262	1.08
x1 = 0.6	965.3	955.6	945.7	1.439	1.211	1.029
x1 = 0.7	959.5	949.8	939.8	1.369	1.156	0.982
x1 = 0.8	954.1	944.4	934.4	1.313	1.108	0.944
x1 = 0.8999	948.5	938.9	929.1	1.243	1.049	0.899
x1 = 1	943.2	933.4	923.3	1.176	0.996	0.859

CCOCCC(=O)OCC [ethyl β-ethoxypropionate]
[2]
Details	mass density [kg/m3]	viscosity [mPa·s]
298.15 K	943.2	1.176
308.15 K	933.4	0.996
318.15 K	923.3	0.859

C=C(C)C(=O)OCc1ccccc1 [benzyl methacrylate]
[2]
Details	mass density [kg/m3]	viscosity [mPa·s]
298.15 K	1034.7	2.302
308.15 K	1025.8	1.885
318.15 K	1017	1.58

CCCCO [butan-1-ol]
[2]
Details	mass density, 298.15 K [kg/m3]	mass density, 303.15 K [kg/m3]	mass density, 308.15 K [kg/m3]	mass density, 313.15 K [kg/m3]	viscosity, 298.15 K [mPa·s]	viscosity, 303.15 K [mPa·s]	viscosity, 308.15 K [mPa·s]	viscosity, 313.15 K [mPa·s]
Capillary tube (Ostwald / Ubbelohde) method	–	–	–	–	2.566	2.265	1.998	1.778
Pycnometric method	805.6	802.1	798	794.5	–	–	–	–

C=C(C)C(=O)O [2-methyl-2-propenoic acid] + CCOCCC(=O)OCC
[1], x2 = 0
Details	mass density [kg/m3]	viscosity [mPa·s]
298.15 K	1009.5	1.267
308.15 K	999.4	1.078
318.15 K	989.2	0.945

C=C(C)C(=O)OCc1ccccc1 [benzyl methacrylate] + CCOCCC(=O)OCC
[1], x2 = 0
Details	mass density [kg/m3]	viscosity [mPa·s]
298.15 K	1034.7	2.302
308.15 K	1025.8	1.885
318.15 K	1017	1.58

C=C(C)C(=O)OCCO [2-hydroxyethyl 2-methyl-2-propenoate]
[2]
Details	mass density [kg/m3]	viscosity [mPa·s]
298.15 K	1067.1	5.784
308.15 K	1057.7	4.194
318.15 K	1048.6	3.181

C=C(C)C(=O)OCCO [2-hydroxyethyl 2-methyl-2-propenoate] + CCOCCC(=O)OCC
[1], x2 = 0
Details	mass density [kg/m3]	viscosity [mPa·s]
298.15 K	1067.1	5.784
308.15 K	1057.7	4.194
318.15 K	1048.6	3.181
